From patent publication US20250312462A1, “PAK1 DEGRADERS AND METHODS OF USE THEREOF” (INSTITUTE FOR CANCER RESEARCH D/B/A THE RESEARCH INSTITUTE …, priority 2022, published 2025) come the findings set out here.

One assay addresses CAMKK2 (Homo sapiens, UniProt Q96RR4). Put plainly: KINOMEscan. The following applies: read-out: Percent Control.
The next assay concerns the target CDK7 (Homo sapiens, UniProt P50613). Nature of the assay: KINOMEscan. To be noted: read-out: Percent Control.
For a further assay, the target named is AKT2 (Homo sapiens, UniProt P31751). Nature of the assay: KINOMEscan. The following applies: read-out: Percent Control.
A further assay concerns the target GAK (Homo sapiens, UniProt O14976). Put plainly: KINOMEscan. The following applies: read-out: Percent Control.
The next assay deals with ADCK3 (Homo sapiens, UniProt Q8NI60). Put plainly: KINOMEscan. To be noted: read-out: Percent Control.
The next assay relates to MEK1 at S298. Nature of the assay: MEK phosphorylation in OVCAR3 and MCF7 cells, immunoblot. The assay is classed as cell-based. To be noted: 10 nM, 24 hours. Here is the method:
FIG. 3A is a series of Western blots showing OVCAR3 and MCF7 cells that were treated for 24 hours with DMSO, 10 nM BJG-05-039, or NVS-PAK1-1 as indicated. MEK and ERK phosphorylation was assessed by immunoblot with the indicated phosphorylation-specific antibodies. FIG. 3B is a Western blot showing MCF7 cells that were stably transduced with a doxycycline-regulated shRNA against PAK1. shRNA expression was induced by the indicated amounts of doxycycline and immunoblots were performed using cell lysates 24 hours post doxycycline addition. FIG. 3C is a Western blot showing MCF7 cells that were treated with vehicle or […] doxycycline. Immunoblots were performed using cell lysates 24 hours post doxycycline addition.
Cells were washed once in PBS and lysed in RIPA buffer (50 mM Tris-HCl, 150 mM NaCl, 0.25% (w/v) sodium deoxycholate, 1% (w/v) NP-40, pH 7.5) containing protease inhibitor cocktail (Roche) and phosphatase inhibitor cocktail (Roche) for 30 minutes on ice. […]
In certain cell lines, PAK1 has well-characterized functions in regulating proliferative signaling. […] As a readout for anti-PAK activity, phosphorylation of MEK1 at S298 was assessed, a direct target site for Group A PAKs (Coles, et al. (2002) Oncogene 21:2236-2244; Slack-Davis, et al. (2003) J. Cell. Biol., 162:281-291), as well as phosphorylation of the downstream target of MEK, ERK. […]

A further assay deals with FLT3(R834Q) (Homo sapiens, UniProt P36888, R834Q). Nature of the assay: KINOMEscan. The following applies: read-out: Percent Control.
The target of another assay is TNK2 (Homo sapiens, UniProt Q07912). Put plainly: KINOMEscan. To be noted: read-out: Percent Control.
Another assay concerns the target FLT3(D835Y) (Homo sapiens, UniProt P36888, D835Y). Put plainly: KINOMEscan. To be noted: read-out: Percent Control.
Another assay addresses PAK1 (Homo sapiens, UniProt Q13153). Nature of the assay: PAK1 degradation in Panc1 cells, Western blot. It is filed as cell-based. The arrangement: endogenous in cells. To be noted: compared with BJG-05-014 and BJG-05-027. Here is the method: In vitro kinase assays were performed using recombinant PAK1 and PAK2, using a library of small molecule protein kinase inhibitors. […] FIG. 1C is a series of Western blots showing the degradation of PAK1 in Panc1 cells by the NVS-PAK1-1-based (allosteric) degraders BJG-05-014, BJG-05-027, and BJG-05-039. Quantification is shown below in the bar graph. FIG. 1D is a series of Western blots showing PAK1, PAK2, and GAPDH in Panc1 cells treated with the indicated amounts of the NVS-PAK1-1-based degrader BJG-05-039 and ATP-competitive degraders BJG-05-093, BJG-05-094, and BJG-05-095.
BJG-05-014, BJG-05-027, and BJG-05-039 were tested in Panc1 cells for their ability to degrade PAK1.

The next assay has as its target AMPK-alpha2 (Homo sapiens, UniProt P54646). Nature of the assay: KINOMEscan. The following applies: read-out: Percent Control.
The next assay concerns the target SgK110 (Homo sapiens, UniProt P0C264). Nature of the assay: KINOMEscan. The following applies: read-out: Percent Control.
The next assay has as its target PRKCI (Homo sapiens, UniProt P41743). Nature of the assay: KINOMEscan. The following applies: read-out: Percent Control.
A further assay addresses IRAK3 (Homo sapiens, UniProt Q9Y616). Nature of the assay: KINOMEscan. The following applies: read-out: Percent Control.
The target in a further assay is LATS2 (Homo sapiens, UniProt Q9NRM7). Put plainly: KINOMEscan. To be noted: read-out: Percent Control.
In a further assay the target is EGFR(T790M) (Homo sapiens, UniProt P00533, T790M). Put plainly: KINOMEscan. The following applies: read-out: Percent Control.
Another assay concerns the target CLK4 (Homo sapiens, UniProt Q9HAZ1). Nature of the assay: KINOMEscan. To be noted: read-out: Percent Control.
The target in assay [1] is JAK1(JH2domain-pseudokinase) (Homo sapiens, UniProt P23458). Nature of the assay: KINOMEscan. The following applies: read-out: Percent Control.
Procedure: (§1) The kinase engagement assay (KINOMEscan®) was performed by DiscoverX assessing binding abilities toward a set of kinases.
In the next assay the target is ACVR1 (Homo sapiens, UniProt Q04771). Put plainly: KINOMEscan. The following applies: read-out: Percent Control.
The next assay has as its target ARK5 (Homo sapiens, UniProt O60285). Put plainly: KINOMEscan. To be noted: read-out: Percent Control.
In a further assay the target is PAK2 (Homo sapiens, UniProt Q13177). Put plainly: KINOMEscan. The following applies: read-out: Percent Control.
In the next assay the target is ASK2 (Homo sapiens, UniProt O95382). Put plainly: KINOMEscan. The following applies: read-out: Percent Control.

Sequence of CDK7 (P50613 whole entry): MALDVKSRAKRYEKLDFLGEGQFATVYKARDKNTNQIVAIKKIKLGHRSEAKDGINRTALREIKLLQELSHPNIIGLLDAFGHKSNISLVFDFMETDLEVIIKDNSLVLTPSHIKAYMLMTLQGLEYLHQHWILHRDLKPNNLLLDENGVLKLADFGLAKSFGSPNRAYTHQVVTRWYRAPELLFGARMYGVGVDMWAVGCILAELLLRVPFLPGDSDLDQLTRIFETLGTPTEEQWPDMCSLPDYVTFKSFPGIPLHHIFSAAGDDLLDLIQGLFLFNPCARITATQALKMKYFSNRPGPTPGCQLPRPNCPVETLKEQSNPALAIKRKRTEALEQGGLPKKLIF
Sequence of ADCK3 (Q8NI60 163-647): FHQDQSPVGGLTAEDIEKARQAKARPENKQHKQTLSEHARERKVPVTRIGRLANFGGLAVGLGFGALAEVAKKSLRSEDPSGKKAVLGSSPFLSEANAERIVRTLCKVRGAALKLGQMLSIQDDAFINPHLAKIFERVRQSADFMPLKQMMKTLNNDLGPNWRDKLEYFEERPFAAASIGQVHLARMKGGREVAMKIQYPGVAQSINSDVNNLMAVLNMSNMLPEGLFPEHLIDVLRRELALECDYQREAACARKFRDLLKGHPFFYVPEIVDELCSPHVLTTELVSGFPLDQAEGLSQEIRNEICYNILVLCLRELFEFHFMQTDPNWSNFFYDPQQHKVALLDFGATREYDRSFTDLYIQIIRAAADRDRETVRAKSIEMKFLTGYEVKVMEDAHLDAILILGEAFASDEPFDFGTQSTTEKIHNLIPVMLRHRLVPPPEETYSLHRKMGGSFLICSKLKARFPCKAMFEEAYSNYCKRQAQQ
Sequence of ARK5 (O60285 whole entry): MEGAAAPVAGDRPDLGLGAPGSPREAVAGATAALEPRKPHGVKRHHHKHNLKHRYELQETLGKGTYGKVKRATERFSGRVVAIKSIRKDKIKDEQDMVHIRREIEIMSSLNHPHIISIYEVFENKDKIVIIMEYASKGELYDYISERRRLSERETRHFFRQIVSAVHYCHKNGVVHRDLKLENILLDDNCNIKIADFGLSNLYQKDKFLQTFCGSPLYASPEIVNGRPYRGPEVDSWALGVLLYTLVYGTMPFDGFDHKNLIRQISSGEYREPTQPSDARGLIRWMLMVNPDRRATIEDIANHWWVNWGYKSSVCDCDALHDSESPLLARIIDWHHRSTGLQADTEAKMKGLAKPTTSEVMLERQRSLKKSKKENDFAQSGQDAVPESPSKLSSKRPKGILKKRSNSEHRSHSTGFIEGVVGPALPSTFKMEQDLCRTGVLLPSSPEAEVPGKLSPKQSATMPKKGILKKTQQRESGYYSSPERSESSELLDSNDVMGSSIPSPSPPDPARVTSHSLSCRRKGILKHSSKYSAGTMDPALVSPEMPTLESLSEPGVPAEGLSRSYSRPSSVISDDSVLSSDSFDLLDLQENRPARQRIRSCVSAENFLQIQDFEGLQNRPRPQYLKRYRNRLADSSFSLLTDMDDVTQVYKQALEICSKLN
Sequence of AMPK-alpha2 (P54646 whole entry): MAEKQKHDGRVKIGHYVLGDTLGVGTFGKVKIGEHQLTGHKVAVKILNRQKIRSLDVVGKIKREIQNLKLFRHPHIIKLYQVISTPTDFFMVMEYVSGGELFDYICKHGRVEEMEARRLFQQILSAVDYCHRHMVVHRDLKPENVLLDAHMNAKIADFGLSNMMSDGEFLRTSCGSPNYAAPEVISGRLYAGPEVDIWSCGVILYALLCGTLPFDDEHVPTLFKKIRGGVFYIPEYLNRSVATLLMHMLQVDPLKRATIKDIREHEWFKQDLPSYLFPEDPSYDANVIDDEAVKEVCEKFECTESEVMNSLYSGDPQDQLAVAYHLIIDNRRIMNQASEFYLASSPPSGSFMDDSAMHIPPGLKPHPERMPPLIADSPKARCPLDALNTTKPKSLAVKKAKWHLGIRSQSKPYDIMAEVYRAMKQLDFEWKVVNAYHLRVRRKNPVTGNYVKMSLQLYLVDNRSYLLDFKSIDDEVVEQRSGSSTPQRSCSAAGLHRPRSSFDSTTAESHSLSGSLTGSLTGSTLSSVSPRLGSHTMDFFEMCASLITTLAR
Sequence of GAK (O14976 whole entry): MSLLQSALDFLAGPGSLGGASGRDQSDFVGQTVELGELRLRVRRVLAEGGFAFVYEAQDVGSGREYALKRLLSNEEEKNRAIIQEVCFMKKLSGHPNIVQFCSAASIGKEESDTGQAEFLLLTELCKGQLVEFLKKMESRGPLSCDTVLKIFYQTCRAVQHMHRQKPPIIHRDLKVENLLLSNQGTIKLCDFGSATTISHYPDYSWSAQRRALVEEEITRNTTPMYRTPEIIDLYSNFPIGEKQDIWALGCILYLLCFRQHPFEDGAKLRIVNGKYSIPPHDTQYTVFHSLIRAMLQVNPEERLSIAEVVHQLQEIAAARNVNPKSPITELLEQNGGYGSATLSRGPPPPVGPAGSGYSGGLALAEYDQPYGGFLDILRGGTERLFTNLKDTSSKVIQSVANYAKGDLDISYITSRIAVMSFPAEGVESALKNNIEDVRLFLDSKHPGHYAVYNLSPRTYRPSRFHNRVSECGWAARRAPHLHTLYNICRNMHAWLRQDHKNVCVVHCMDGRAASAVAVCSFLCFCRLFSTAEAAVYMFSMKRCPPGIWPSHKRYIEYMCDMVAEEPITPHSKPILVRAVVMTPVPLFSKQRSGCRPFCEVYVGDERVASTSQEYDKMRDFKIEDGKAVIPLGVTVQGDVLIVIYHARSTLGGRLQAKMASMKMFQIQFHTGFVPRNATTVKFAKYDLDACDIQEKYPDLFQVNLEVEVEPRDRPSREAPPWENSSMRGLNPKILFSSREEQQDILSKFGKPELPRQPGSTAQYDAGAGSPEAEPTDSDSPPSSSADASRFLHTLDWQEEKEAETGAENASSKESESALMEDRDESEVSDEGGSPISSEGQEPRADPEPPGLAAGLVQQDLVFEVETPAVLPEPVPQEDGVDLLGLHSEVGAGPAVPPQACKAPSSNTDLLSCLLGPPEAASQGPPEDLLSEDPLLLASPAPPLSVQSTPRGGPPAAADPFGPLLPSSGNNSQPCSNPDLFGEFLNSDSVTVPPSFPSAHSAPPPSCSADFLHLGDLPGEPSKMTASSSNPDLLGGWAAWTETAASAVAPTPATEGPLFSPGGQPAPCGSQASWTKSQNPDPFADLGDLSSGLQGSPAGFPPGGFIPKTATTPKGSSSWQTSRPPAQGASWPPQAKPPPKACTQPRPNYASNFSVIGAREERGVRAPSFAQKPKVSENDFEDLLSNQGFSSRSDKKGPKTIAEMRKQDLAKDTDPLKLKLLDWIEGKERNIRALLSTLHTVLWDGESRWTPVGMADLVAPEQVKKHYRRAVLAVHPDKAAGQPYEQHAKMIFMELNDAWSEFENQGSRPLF
Sequence of LATS2 (Q9NRM7 whole entry): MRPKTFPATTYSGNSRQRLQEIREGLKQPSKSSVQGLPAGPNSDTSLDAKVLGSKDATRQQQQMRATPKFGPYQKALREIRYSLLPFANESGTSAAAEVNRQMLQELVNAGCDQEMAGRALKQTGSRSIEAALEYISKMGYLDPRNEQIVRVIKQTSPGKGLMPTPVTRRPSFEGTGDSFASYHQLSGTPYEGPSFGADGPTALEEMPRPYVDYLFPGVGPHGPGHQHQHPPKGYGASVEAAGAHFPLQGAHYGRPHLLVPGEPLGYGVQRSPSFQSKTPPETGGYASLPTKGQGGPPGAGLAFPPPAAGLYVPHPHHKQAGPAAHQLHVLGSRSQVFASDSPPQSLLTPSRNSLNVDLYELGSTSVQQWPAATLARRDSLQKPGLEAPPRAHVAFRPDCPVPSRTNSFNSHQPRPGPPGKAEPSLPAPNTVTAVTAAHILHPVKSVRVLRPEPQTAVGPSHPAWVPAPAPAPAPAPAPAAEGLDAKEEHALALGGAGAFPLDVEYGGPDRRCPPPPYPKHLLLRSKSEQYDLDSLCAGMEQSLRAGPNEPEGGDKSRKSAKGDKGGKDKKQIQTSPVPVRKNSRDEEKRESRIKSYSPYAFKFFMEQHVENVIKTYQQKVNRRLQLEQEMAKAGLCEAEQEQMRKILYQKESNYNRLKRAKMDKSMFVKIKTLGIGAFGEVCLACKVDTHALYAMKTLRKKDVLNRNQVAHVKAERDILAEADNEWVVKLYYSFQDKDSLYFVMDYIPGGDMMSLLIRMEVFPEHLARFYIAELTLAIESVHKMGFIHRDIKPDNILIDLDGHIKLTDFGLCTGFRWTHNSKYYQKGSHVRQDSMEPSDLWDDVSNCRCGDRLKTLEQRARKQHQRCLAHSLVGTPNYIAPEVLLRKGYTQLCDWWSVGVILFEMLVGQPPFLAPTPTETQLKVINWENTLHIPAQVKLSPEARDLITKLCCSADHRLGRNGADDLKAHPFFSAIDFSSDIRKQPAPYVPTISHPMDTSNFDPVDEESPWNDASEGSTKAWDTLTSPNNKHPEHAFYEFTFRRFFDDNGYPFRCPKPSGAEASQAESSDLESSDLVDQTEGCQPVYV
Sequence of PRKCI (P41743 whole entry): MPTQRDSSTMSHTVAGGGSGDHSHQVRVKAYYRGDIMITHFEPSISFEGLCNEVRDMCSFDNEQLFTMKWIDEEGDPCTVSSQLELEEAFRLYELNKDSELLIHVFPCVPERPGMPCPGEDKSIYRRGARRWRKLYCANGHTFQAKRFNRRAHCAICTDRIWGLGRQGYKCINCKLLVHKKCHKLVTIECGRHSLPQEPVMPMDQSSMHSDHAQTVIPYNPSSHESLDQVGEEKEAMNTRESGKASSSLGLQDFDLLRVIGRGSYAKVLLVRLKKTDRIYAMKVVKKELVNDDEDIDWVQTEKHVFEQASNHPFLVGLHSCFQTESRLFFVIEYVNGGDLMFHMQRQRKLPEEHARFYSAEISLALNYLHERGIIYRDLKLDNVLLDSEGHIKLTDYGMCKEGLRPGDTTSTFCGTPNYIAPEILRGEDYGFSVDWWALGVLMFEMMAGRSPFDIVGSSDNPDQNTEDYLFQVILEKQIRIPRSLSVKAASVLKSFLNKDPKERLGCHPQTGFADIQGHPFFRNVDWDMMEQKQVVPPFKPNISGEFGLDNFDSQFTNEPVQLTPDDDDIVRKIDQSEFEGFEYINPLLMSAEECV
Procedure for ACVR1: as §1
Procedure for ADCK3: as §1
Procedure for AKT2: as §1
Procedure for AMPK-alpha2: as §1
Procedure for ARK5: as §1
Procedure for ASK2: as §1
Procedure for CAMKK2: as §1
Procedure for CDK7: as §1
Procedure for CLK4: as §1
Procedure for EGFR(T790M): as §1
Procedure for FLT3(D835Y): as §1
Procedure for FLT3(R834Q): as §1
Procedure for GAK: as §1
Procedure for IRAK3: as §1
Procedure for LATS2: as §1
Procedure for PAK2: as §1
Procedure for PRKCI: as §1
Procedure for SgK110: as §1
Procedure for TNK2: as §1

For the compound `O=C1CCC(N2C(=O)c3cccc(NCCCCCCCCNC(=O)N4CC[C@H](NC5=Nc6cc(F)ccc6N(CC(F)F)c6ccc(Cl)cc65)C4)c3C2=O)C(=O)N1` (stereo partly drawn) [BJG-05-039, (3S)-3-((2-Chloro-5-(2,2-difluoroethyl)-8-fluoro-5H-dibenzo[b,e][1,4]diazepin-11-yl)amino)-N-(8-((2-(2,6-dioxopiperidin-3-yl)-1,3-dioxoisoindolin-4-yl)amino)octyl)pyrrolidine-1-carboxamide], the remaining binding at 10 µM at CAMKK2 is 46%; on CDK7, 100%; on AKT2, 86%; on GAK, 56%; on ADCK3 it was 83%; on FLT3(R834Q) it was 100%. Further, the remaining binding at 10 µM is 92% at TNK2; 63% at FLT3(D835Y); 100% at AMPK-alpha2; 83% on SgK110; 100% at PRKCI; 55% on IRAK3. Further, the remaining binding at 10 µM turned out to be 100% on LATS2; 97% on EGFR(T790M); 100% on CLK4; 100% in assay [1]; 89% at ACVR1; 45% on ARK5. Moreover, the remaining binding at 10 µM at PAK2 was found to be 87%; on ASK2, 78%. Also, the “Phosphorylation of MEK S298” value in the assay with MEK1 at S298 is on record as “inhibited phosphorylation of MEK S298”. The “Ability to degrade PAK1” value on PAK1 is recorded as “most promising profile”.
